{
  "source": "paper PMC4917822",
  "about": "“pH-Selective Cytotoxicity of pHLIP-Antimicrobial Peptide Conjugates” (Scientific Reports, 2016)",
  "key": {"MDA-MB-231 cells [1]": {"tested_on": "MDA-MB-231 cells", "experiment": "Annexin V-Alexa Fluor 488 / MitoTracker Red dual staining by flow cytometry", "assay_type": "cell-based, Human", "settings": "for PS externalization (Annexin V) and loss of mitochondrial membrane potential (MitoTracker Red) at low pH / Annexin V / MitoTracker Red effects 6 hours post-treatment: 10 μM; for PS externalization (Annexin V) and loss of mitochondrial membrane potential (MitoTracker Red) at low pH: 2 h at pH 5.0, 24 h recovery, n = 3; for Annexin V / MitoTracker Red effects 6 hours post-treatment: 2 h at pH 7.4 or 5.0, 6 h recovery, n = 3 (Figure S3)"}, "[2]": {"tested_on": "MDA-MB-231 breast cancer cells", "experiment": "Anti-proliferation assay (MTT) after 2 h treatment at pH 7.4 or 5.0", "assay_type": "cell-based, Human", "settings": "for enhancement of cytotoxicity of free peptide at low pH: pH 5.0, 10 μM; for enhancement of cytotoxicity of free peptide at low pH / cytotoxicity of free peptide at physiological pH: n = 9; for cytotoxicity of free peptide at physiological pH: pH 7.4, 72 h recovery", "procedure": "We have previously shown that this treatment protocol and pHLIP alone have no effect on MDA-MB-231 cell viability.\nFigure 2 Inhibition of cell growth. MDA-MB-231 cells treated with 4-amino acid pHLIP-KLAKS conjugates. Black columns represent cells treated at pH 7.4 and cells treated at low pH are shown in grey. For each condition, 3,000 cells/well (96-well plate) were seeded, allowed to adhere overnight, treated for 2 hours, washed once with media and cultured for 72 hour in complete medium at physiologic pH. Cell viability was assessed with the MTT assay. All measurements were normalized to the media control (0 μM, pH 7.4), as 100% cell viability. Results are shown as mean ± SEM (n = 9–12).\nFor each condition, 3,000 cells/well (96-well plate) were seeded, allowed to adhere overnight, treated for 2 hours, washed once with media and cultured for 72 hour in complete medium at physiologic pH. Cell viability was assessed with the MTT assay. All measurements were normalized to the media control (0 μM, pH 7.4), as 100% cell viability. Results are shown as mean ± SEM (n = 9–12). Data at pH 5.0 (A and B) were fitted with a sigmoidal dose-response using Prism 6 for Macintosh (GraphPad, Inc).\nFigure 5 Effect of free peptides on cell viability. MDA-MB-231 cells were treated with 10 μM of either (KLAKLAK)2 (A) or KLAKLAK (B) at pH 7.4 (black circles) or pH 5.0 (grey squares) for 2 hours, washed once with media and cultured for 72 hours in complete medium at physiologic pH. Cell viability was assessed with the MTT assay, and all measurements were normalized to the media control (0 μM, pH 7.4), as 100% cell viability. Results are shown as mean ± SEM (n = 9).\nCells were seeded in 96-well plates at a density of 3,000 cells/well and incubated overnight. […] Treatment solutions were collected and their pH values measured using a micro-combination pH probe (Microelectrodes, Inc.). […] Cell viability was determined after 72 hours using the colorimetric MTT assay. Briefly, 10 μL of a 5 mg/mL MTT stock solution was added to the treated cells and incubated for 2 hours at 37 °C. The resulting formazan crystals were solubilized in 200 μL DMSO and the absorbance measured at 580 nm using an Infinite 200 PRO microplate reader (Tecan). Cell viability was calculated against control cells treated with media at physiologic pH. When needed, data were fitted with a sigmoidal dose-response using Prism 5 for Macintosh (GraphPad, Inc). […]\nFigure S1. Effect of Free Peptides on Cell Viability and Plasma Membrane Integrity. For each condition, 3,000 cells/well (96-well plate) were seeded, incubated until confluent (~72 hours) and treated for 2 hours with 10 µM of free pHLIP(WT) or free tetrapeptides at pH 7.4 (black bars) and a low pH (grey bars). (A) Cell viability assay. After the 2-hour treatment, cells were washed once with media and cultured for 72 hour in complete medium at physiologic pH. Cell viability was assessed with the MTT assay. All measurements were normalized to the media control (0 µM, pH 7.4), as 100% cell viability. Results are shown as mean ± SEM (n=9-12). (B) After the 2-hour treatment, cells were detached and counted based on trypan blue uptake with an hemacytometer: % of intact cells corresponds to the number of cells not showing any dye uptake over the total number of cells. Results are shown as mean ± SD (n=3)."}, "MDA-MB-231 cells [3]": {"tested_on": "MDA-MB-231 cells", "experiment": "Lactate dehydrogenase (LDH) release assay", "assay_type": "cell-based, Human", "settings": "10 μM free peptide, 2 h at pH 5.0", "text": "(§1) First, we assessed the effect of the conjugates on the integrity of cell membranes based on the uptake of Trypan Blue, which can be taken up by cells only if their plasma membrane is disrupted. […] We also measured the release of the intracellular enzyme lactate dehydrogenase (LDH) after peptide treatment, as another method to evaluate plasma membrane damage. […] Importantly, it was previously shown that neither pHLIP alone nor low pH treatments disrupts membranes, including that of MDA-MB-231 cells[20][23] (Figure S1).\n(§2) Figure 4 Effect of free peptides and pHLIP-conjugates on Plasma Membrane Integrity and Lactate Dehydrogenase (LDH) Release. (A) The integrity of the plasma membrane is assessed by the uptake of trypan blue dye. […] Cells were detached and counted based on trypan blue uptake with an hemacytometer: % of intact cells corresponds to the number of cells not showing any dye uptake over the total number of cells. […] Cell media supernatant was monitored for the presence of LDH following treatment. […]\n(§3) For the Trypan Blue plasma membrane integrity assays cells were seeded in 96-well plates at a density of 3,000 cells/well and incubated until confluent (~72 hours). […] After treatment, the media was removed, cells were detached using trypsin and counted based on trypan blue uptake using an hemacytometer. […] Percent LDH release was calculated against control cells treated with media at physiologic pH."}, "caspases 3 and 7": {"tested_on": "caspases 3 and 7", "settings": "MDA-MB-231; 10 μM; 2 h at pH 7.4 or 5.0; monitored at 24, 48 and 72 hours; fluorescence 485/530 nm; n = 3 (Figure S5)", "procedure": "Before treatment, construct aliquots were solubilized in an appropriate volume of DMEM without FBS (pH 7.4) so that upon pH adjustment 10 μM is obtained. […]"}, "MDA-MB-231 cells [4]": {"tested_on": "MDA-MB-231 cells", "experiment": "Trypan Blue plasma membrane integrity assay", "assay_type": "cell-based, Human", "settings": "10 μM, 2 h at pH 7.4 or pH 5.0, % intact cells counted with hemacytometer, mean ± SD, n = 3", "text": "as §1, §2\nas §3, with “pH. […]” for “pH.”"}, "[5]": {"tested_on": "MDA-MB-231 breast cancer cells", "settings": "cited from earlier work"}},
  "note": "Bridges are numbered along the chain shown (N, C = ends). Roman numbers before positions name the chains, in order. Where no end group is shown, it is not given here.",
  "data": [
    {"molecule": "CN[C@@H]1C[C@H]2O[C@@](C)([C@@H]1OC)n1c3ccccc3c3c4c(c5c6ccccc6n2c5c31)C(=O)NC4", "note": "[staurosporine, reference compound]", "values": [
      {"measurement": "Annexin V / MitoTracker Red population shift (positive control)", "setting": "MDA-MB-231 cells [1]; 1 μM for 6 or 24 hours, n = 3 (Figure S4)", "result": "clear shift in cell population"}
    ]},
    {"molecule": "CKLAKLAK", "values": [
      {"measurement": "enhancement of cytotoxicity of free peptide at low pH", "setting": "[2]; 72 h recovery", "result": "only a modest one"},
      {"measurement": "cytotoxicity of free peptide at physiological pH", "setting": "[2]", "result": "not significantly toxic"},
      {"measurement": "LDH release 24 hours post-treatment at low pH", "setting": "MDA-MB-231 cells [3]", "result": "some LDH release"},
      {"measurement": "PS externalization (Annexin V) and loss of mitochondrial membrane potential (MitoTracker Red) at low pH", "setting": "MDA-MB-231 cells [1]", "result": "only a modest one"},
      {"measurement": "Annexin V / MitoTracker Red effects 6 hours post-treatment", "setting": "MDA-MB-231 cells [1]", "result": "no evidence of these effects"},
      {"measurement": "caspase 3/7 activation", "setting": "caspases 3 and 7", "result": "neither treatments with pHLIP-KLAKLAK or KLAKLAK induces any significant caspase activation"}
    ]},
    {"molecule": "CKLAKLAKKLAKLAK [(KLAKLAK)2, cationic antimicrobial peptide cargo, synthesized with N-terminal Cys, amidated C-terminus]", "values": [
      {"measurement": "enhancement of cytotoxicity of free peptide at low pH", "setting": "[2]; 72 h recovery", "result": "greatest enhancement"},
      {"measurement": "cytotoxicity of free peptide at physiological pH", "setting": "[2]", "result": "not significantly toxic"},
      {"measurement": "LDH release 24 hours post-treatment at low pH", "setting": "MDA-MB-231 cells [3]", "result": "some LDH release"},
      {"measurement": "PS externalization (Annexin V) and loss of mitochondrial membrane potential (MitoTracker Red) at low pH", "setting": "MDA-MB-231 cells [1]", "result": "largest effect"},
      {"measurement": "Annexin V / MitoTracker Red effects 6 hours post-treatment", "setting": "MDA-MB-231 cells [1]", "result": "no evidence of these effects"}
    ]},
    {"molecule": "GGEQNPIYWARYADWLFTTPLLLLDLALLVDADEGTCG (H-GGEQNPIYWARYADWLFTTPLLLLDLALLVDADEGTCG-NH2) [pHLIP(WT)]", "values": [
      {"measurement": "effect of free peptide on cell viability (Figure S1A)", "setting": "[2]; 10 μM free peptide, pH 7.4 and low pH, 72 h recovery, n = 9-12", "result": "neither pHLIP(WT) nor the tetrapeptides has any significant harmful effects"},
      {"measurement": "plasma membrane integrity (trypan blue uptake)", "setting": "MDA-MB-231 cells [4]", "result": "neither pHLIP(WT) nor the tetrapeptides has any significant harmful effects"},
      {"measurement": "effect of pHLIP alone on MDA-MB-231 cell viability", "setting": "[5]", "result": "no effect"}
    ]},
    {"molecule": "I: GGEQNPIYWARYADWLFTTPLLLLDLALLVDADEGTCG-NH2 / II: CKAAK-NH2 (disulfide I:37-II:1) [pHLIP-KAAK]", "values": [
      {"measurement": "overall cell proliferation inhibition relative to the other 4-amino acid conjugates", "setting": "[2]; low pH, 1.25–10 μM, 72 h recovery", "result": "lower than pHLIP-KGGK"}
    ]}
  ]
}
